Columns and labels:
[1] = conventional formulations, parenteral; cited from earlier work
[2] = cited from earlier work
[3] = test system: human red blood cells (RBC); test: In vitro toxicity toward red blood cells (hemoglobin release, hemolysis); details: at 75 Mg/ml (so in the source); 20% human RBC, 45 minutes at 37° C.; hypotonic water = 100% lysis
Procedure: The samples were incubated for 45 minutes at 37° C., centrifuged at 10,000 xg for 20 minutes, and the hemoglobin content of the supernatant determined by its light absorbance. The release of hemoglobin by a hypotonic water solution was also measured and was considered to represent 100% lysis.

humans = details: given orally to humans; cited from earlier work
various fungi = test: In vitro susceptibility experiments, candicidin compared with amphotericin B; format: cell-based; details: experiments in various laboratories including those of the present inventors

Compound | persons given amphotericin B who develop decreased renal function and abnormal urine sediment [1] | water solubility [2] | RBC hemolysis [3] | toxicity on oral administration (humans) | antifungal activity compared with amphotericin B (various fungi)
C[C@@H]1[C@H](O)[C@@H](C)/C=C/C=C/C=C/C=C/C=C/C=C/C=C/[C@H](O[C@@H]2O[C@H](C)[C@@H](O)[C@H](N)[C@@H]2O)C[C@@H]2O[C@](O)(C[C@@H](O)C[C@@H](O)[C@H](O)CC[C@@H](O)C[C@@H](O)CC(=O)O[C@H]1C)C[C@H](O)[C@H]2C(=O)O [amphotericin B] | over 80% | – | – | – | –
candicidin | – | totally water insoluble | 75% | without any toxicity | much higher antifungal activity than amphotericin B

— US4999199A, “Pharmaceutical formulations: liposomes incorporating aromatic polyene antibiotics” (priority 1988, dated 1991)
